The source of these data is patent US9549949B2, “Antiviral agent” (NBC MESHTEC, INC., priority 2008, dated 2017).

Several values for one entry are separate records, joined by “and”; a condition that tells them apart may be missing. Equal values may be shown once. Read-outs that look alike come from different tables or passages of the source.

Format in all cases: cell-based
Assay [1] relates to influenza virus (influenza A/kitakyusyu/159/93 (H3N2)).
Assay [2] has the same test system. The assay can be described thus: Virus inactivation, plaque assay on MDCK cells. The note with it: enveloped influenza virus, time period as short as 1 minute.
Assay [3] deals with feline calicivirus (F9 strain). The assay can be described thus: Virus inactivation, plaque assay on CrFK cells. The note with it: non-enveloped feline calicivirus, time period as short as 1 minute.
Setting [4] is: conc. of substance 0.5 mass %, 10 minutes at room temperature, control (PBS) 128.
The mark [5] stands for this setting: conc. of substance 5 mass %, 10 minutes at room temperature, control (PBS) 128.

As for `[Cu+].[I-]` [Example 1, Copper (I) iodide], the HA titer in assay [1] (setting [4]) amounted to 32; in assay [1] (setting [5]), 8. In addition, the “virus inactivation activity (in words)” value in assay [2] and in assay [3] was “sufficiently high virus inactivation activity” in each case.
For the compound `[I][Sb]([I])[I]` [Example 3, Antimony (III) iodide], the HA titer in assay [1] (setting [4]) came to 32; in assay [1] (setting [5]) it was 16.
The matching figures for `[I][Ir]([I])([I])[I]` [Example 4, Iridium (IV) iodide]: 64 and 32.
The corresponding values for `[I][Ge]([I])([I])[I]` [Example 5, Germanium (IV) iodide] are <2 and <2.
The matching figures for `[I][Ge][I]` [Example 6, Germanium (II) iodide]: 2 and <2.
Consider `[I][Sn][I]` [Example 7, Tin (II) iodide], for which the HA titer in assay [1] (setting [4]) is given as 2; in assay [1] (setting [5]), <2.
The matching figures for `[I][Sn]([I])([I])[I]` [Example 8, Tin (IV) iodide]: 2 and <2.
The corresponding values for `[I-].[Tl+]` [Example 9, Thallium (I) iodide] are 64 and 32.
In the case of `[I-].[I-].[I-].[I-].[Pt+4]` [Example 11, Platinum (IV) iodide], the figures for the HA titer in assay [1] (setting [4]) and in assay [1] (setting [5]) were 64 and 32, respectively.
As for `[I][Pd][I]` [Example 12, Palladium (II) iodide], the HA titer in assay [1] (setting [4]) was 64; in assay [1] (setting [5]) it was 2.
The matching figures for `[I][Bi]([I])[I]` [Example 13, Bismuth (III) iodide]: 64 and 8.
Take `[I][Au]` [Example 14, Gold (I) iodide]: the HA titer came to 64 in assay [1] (setting [4]) and 4 in assay [1] (setting [5]).
As for `[Fe+2].[I-].[I-]` [Example 16, Iron (II) iodide], the HA titer in assay [1] (setting [4]) and in assay [1] (setting [5]) was <2 throughout.
Regarding `[Co+2].[I-].[I-]` [Example 17, Cobalt (II) iodide], the results for the HA titer in assay [1] (setting [4]) and in assay [1] (setting [5]) were 8 and <2, respectively.
As to `[I][Ni][I]` [Example 18, Nickel (II) iodide], the HA titer in assay [1] is <2 and 4.
Take `[I-].[I-].[Zn+2]` [Example 19, Zinc (II) iodide]: the HA titer in assay [1] (setting [4]) is 4; in assay [1] (setting [5]) it was <2.
The corresponding values for `[I][In]([I])[I]` [Example 21, Indium (III) iodide] are <2 and <2.
Take `[Cl][Cu]` [Example 22, Copper (I) chloride]: the HA titer in assay [1] (setting [4]) and in assay [1] (setting [5]) was <2 each time. In addition, the “virus inactivation activity (in words)” value in assay [2] and in assay [3] was “sufficiently high virus inactivation activity” throughout.
Turning to `[Cu][Br]` [Example 23, Copper (I) bromide], the HA titer is 32 in assay [1] (setting [4]) and <2 in assay [1] (setting [5]).
Regarding `CC(=O)[O-].[Cu+]` [Example 24, Copper (I) acetate], in assay [1], the HA titer is recorded as <2.
Consider `N#C[S-].[Cu+]` [Example 25, Copper (I) thiocyanate], for which the HA titer in assay [1] (setting [4]) worked out at 64; in assay [1] (setting [5]) it was 16.
The matching figures for `[Cu].[O]=[Cu]` [Example 27, Copper (I) oxide]: 64 and 8.
The corresponding values for Silver (I) iodide [Example 20] are 64 and 32.
